What was measured:
[1] = tested on: CD11b+ CD11c− cells; assay: qPCR of Il1a, Tnf, C1qa mRNA in CD11b+ CD11c- cells sorted from neurosensory retina of microbead-injected mice; type: in vivo, mouse; details: NLY01 5 mg/kg s.c. twice weekly vs NSS
[2] = Intraocular pressure (IOP) measurement in microbead-induced ocular hypertension mouse glaucoma model; details: NLY01 5 mg/kg s.c. twice weekly vs normal saline; IOP across the study
[3] = cited from earlier work
[4] = tested on: NFκB; details: GLP-1R-dependent manner; cited from earlier work
[5] = cited from earlier work; remark: listed apart in the source
[6] = tested on: NFκB; assay: phospho-NFκB/total NFκB ELISA and NFκBIA (IκBα) qPCR in sorted CD11b+ retinal cells of microbead-injected mice; type: in vivo, mouse; details: 42nd day post-injection; CD11b+ CD11c− and CD11b+ CD11c+ cells; NLY01 5 mg/kg s.c. twice weekly vs NSS
Method: FIGS. 11A-11D show NLY01 modulates NFκB signaling in CD11b+ CD11c− and CD11b+ CD11c+ cells. Related to FIGS. 4A-4H and 5A-5H. C57BL6/J (WT) mice were injected either with microbeads (“Bead”, left eye), to increase intraocular pressure (IOP), or with BSS (right eye). Following intraocular injections, mice were randomized to twice weekly subcutaneous NLY01 (5 mg kg^−1 per injection) or normal saline solution (NSS). 42 days post-injection mice were euthanized, neurosensory retina (“NSR”) was harvested and sorted as described in FIG. 9A to isolate CD11b+CD11c− and CD11b+ CD11c+ cells. […] All data presented as mean±SEM. Ordinary one-way ANOVA, *p<0.05, **p<0.01, ***p<0.001, ****p<0.0001.
ACSA2+, CD11b+ CD11c−, and CD11b+ CD11c+ cells were isolated from adult murine retinas using the Miltenyi Adult Brain Dissociation Kit (Miltenyi Biotec, 130-107-677) and MACS magnetic cell separation system. […]
ELISA kits were used to measure protein levels of IL-1α (BMS627, Thermofisher Scientific), TNF-α (BMS607-3, Thermofisher Scientific), C1q (LS-F55223-1, LifeSpan BioSciences), C3 (ab157711, Abcam), and phospho-NFκB/total NFκB (Thermofisher Scientific, 50-246-259) according to the manufacturer's protocol. […] Protein levels were determined by comparing the absorbance produced by the samples with that of a calibration curve. […]

[7] = tested on: retinal ganglion cells (RGCs); assay: Retinal ganglion cell counting on retinal flatmounts (Brn3a, Rbpms), microbead eIOP model, subcutaneous NLY01; type: in vivo, mouse; details: 42 days; NLY01 5 mg/kg twice weekly vs NSS; bead eye normalized to BSS eye
[8] = tested on: CD11b+ CD11c+ cells; assay: qPCR of Il1a, Tnf, C1qa mRNA in CD11b+ CD11c+ cells sorted from neurosensory retina of microbead-injected mice; type: in vivo, mouse; details: NLY01 5 mg/kg s.c. twice weekly vs NSS
[9] = tested on: ACSA2+ cells (astrocyte and Müller cell enriched); assay: qPCR of pan reactive, A1-specific transcripts and C3 in ACSA2+ retinal cells of microbead-injected mice; type: in vivo, mouse; details: NLY01 5 mg/kg s.c. twice weekly vs NSS
[10] = mouse model of Parkinson's disease

Substance: NLY01: pegylated exendin-4 (exenatide); long-acting GLP-1R agonist, obtained from Neuraly
- CD11b+ CD11c− basal expression of C1q ([1]; 14th day post-injection): without altering
- CD11b+ CD11c− basal expression of IL-1a ([1]; 14th day post-injection): without altering
- CD11b+ CD11c− upregulation of TNF-α ([1]; 14th day post-injection): reduced
- CD11b+ CD11c− expression of C1q ([1]; 42nd day post-injection): reduced
- CD11b+ CD11c− expression of IL-1α ([1]; 42nd day post-injection): reduced
- CD11b+ CD11c− expression of TNF-α ([1]; 42nd day post-injection): reduced
- effect on intraocular pressure in microbead- or BSS-injected eyes [2]: no effect
- microglia density [3, 10]: reduces
- relative IBA1 levels [3, 10]: reduces
- A1 astrocyte transformation ([3]; mouse models of PD): blocking
- dopaminergic cell death ([3]; mouse models of PD): reducing
- microglial production of C1q, TNF-α, and IL-1α ([3]; mouse models of PD): reduce
- motor symptoms ([3]; mouse models of PD): improving
- nuclear translocation and phosphorylation of NFκB in brain microglia [4]: reduce
- blood-brain barrier penetration ([5]; in vivo): favorable
- half-life ([5]; in vivo): extended
- NLY01 concentrations in the brain, Parkinson's disease mouse models vs WT animals ([5]; mouse models of Parkinson's disease): higher
- mRNA levels of IκBα [6]: increased
- phosphorylated NFκB protein levels [6]: decreased
- RGC death secondary to eIOP, Brn3a+ cell counting [7]: reduced
- RGC death secondary to eIOP, RBPMS+ cell counting [7]: reduced
- CD11b+ CD11c+ expression of C1q ([8]; 14th day post-injection): reduced
- CD11b+ CD11c+ expression of IL-1α ([8]; 14th day post-injection): reduced
- CD11b+ CD11c+ expression of TNF-α ([8]; 14th day post-injection): reduced
- second cell population (CD11b+ CD11c−) expression of C1q ([8]; 42nd day post-injection): reduced
- second cell population (CD11b+ CD11c−) expression of IL-1α ([8]; 42nd day post-injection): reduced
- second cell population (CD11b+ CD11c−) expression of TNF-α ([8]; 42nd day post-injection): reduced
- expression of A1-specific transcripts in ACSA2+ fraction ([9]; 14th day post-injection): reduced
- expression of C3 in ACSA2+ fraction ([9]; 14th day post-injection): reduced
- expression of pan reactive transcripts in ACSA2+ fraction ([9]; 14th day post-injection): reduced
- expression of A1-specific transcripts in ACSA2+ fraction ([9]; 42nd day post-injection): reduced
- expression of C3 in ACSA2+ fraction ([9]; 42nd day post-injection): reduced
- expression of pan reactive transcripts in ACSA2+ fraction ([9]; 42nd day post-injection): reduced

Reference: patent publication US20220193201A1, “GLP-1R AGONIST REDUCES RETINAL INFLAMMATION AND NEURON DEATH SECONDARY TO OCULAR HYPERTENSION” (THE TRUSTEES OF THE UNIVERSITY OF PENNSYLVANIA, priority 2020, published 2022)
